Source: patent US20240294550A1, “8-OXA-3-AZABICYCLO[3.2.1]OCTANE COMPOUNDS OR SALT THEREOF, AND PREPARATION METHOD AND USE THEREOF” (LITTDD MEDICINES LTD, priority 2021, published 2024)
Structures can show the parent of a compound that is named as a salt.

What was measured:
LOVO cells = assay: Cell proliferation assay (CellTiter-Glo); assay type: cell-based; conditions: Homo sapiens, 96 hours
Experimental: The cell proliferation inhibition effect of the compound of the invention was tested using CellTiter-Glo™ cell viability assay kit. This kit uses luciferase as the detector. During the luminescence process, the luciferase requires the participation of ATP. CellTiter-Glo™ reagent was added to the cell culture medium, and the luminescence value was measured. The light signal is proportional to the amount of ATP present in the system, and ATP positively correlates with the number of viable cells present, thus the cell proliferation activity is measured.
Cell culture and seeding: LOVO cells in logarithmic growth phase (human colon carcinoma cells) (ATCC CCL-229) were harvested and counted using a platelet counter. Trypan blue exclusion method was used to detect the cell viability to ensure that the cell viability was above 90%. 90 μL of cell suspension (RPMI1640+10% fetal bovine serum) was added to a 96-well transparent flat-bottom black-wall plate (Thermo, 165305) respectively, and the cell concentration was adjusted to 3000/well/90 μl. Cells in the 96-well plate were incubated overnight at 37° C., 5% CO2 with 95% humidity (Thermo, Model 3100 Series).
Firstly, DMSO was used as the solvent to prepare 10 mM mother solution of the test compounds, and then PBS was used to dilute 100 times to prepare a solution of 10 times of final concentration, the highest concentration was 100 μM. 10 μL solution of the test compounds was added to each well of the 96 well plate inoculated with cells, namely the solution was further diluted 10 times to reach the final concentration of 10 μM. Starting from 10 μM, the final concentration of the test compound was 3-fold serially diluted, with 9 concentrations in total with 3 triplicates for each concentration. The 96 well plates with the test compounds and cells were incubated at 37° C., 5% CO2 and 95% humidity for 96 hours, and then CellTiter Glo analysis was performed.
CellTiter-Glo Reagents (CellTiter Glo R Luminescent Cell Viability Assay, Promega, G7572) were melted and the 96-well plates were equilibrated to room temperature for 30 minutes. An equal volume of CellTiter-Glo solution was added to each well, and the cells were lysed by shaking on the fixed orbit shaker for 5 minutes. The assay plates were left at room temperature for 20 minutes to stabilize the luminescence signal, and the luminescence signals were read using the SpectraMax multi-labeled microplate detector (MD, M3).
Data were analyzed using GraphPad Prism 7.0 software, fitted with non-linear S-curve regression to derive the dose-response curves, and IC50 values were calculated therefrom.
Cell survival rate (%)=(LumDrug to be tested−LumCulture medium control)/(LumCell control−LumCulture medium control)×100%

ATR = ATR (Homo sapiens (Human), UniProt Q13535); assay: ATR kinase inhibition assay (HTRF); assay type: biochemical; conditions: p53 substrate, ATP 150 nM
Chain of ATR (Q13535 whole entry): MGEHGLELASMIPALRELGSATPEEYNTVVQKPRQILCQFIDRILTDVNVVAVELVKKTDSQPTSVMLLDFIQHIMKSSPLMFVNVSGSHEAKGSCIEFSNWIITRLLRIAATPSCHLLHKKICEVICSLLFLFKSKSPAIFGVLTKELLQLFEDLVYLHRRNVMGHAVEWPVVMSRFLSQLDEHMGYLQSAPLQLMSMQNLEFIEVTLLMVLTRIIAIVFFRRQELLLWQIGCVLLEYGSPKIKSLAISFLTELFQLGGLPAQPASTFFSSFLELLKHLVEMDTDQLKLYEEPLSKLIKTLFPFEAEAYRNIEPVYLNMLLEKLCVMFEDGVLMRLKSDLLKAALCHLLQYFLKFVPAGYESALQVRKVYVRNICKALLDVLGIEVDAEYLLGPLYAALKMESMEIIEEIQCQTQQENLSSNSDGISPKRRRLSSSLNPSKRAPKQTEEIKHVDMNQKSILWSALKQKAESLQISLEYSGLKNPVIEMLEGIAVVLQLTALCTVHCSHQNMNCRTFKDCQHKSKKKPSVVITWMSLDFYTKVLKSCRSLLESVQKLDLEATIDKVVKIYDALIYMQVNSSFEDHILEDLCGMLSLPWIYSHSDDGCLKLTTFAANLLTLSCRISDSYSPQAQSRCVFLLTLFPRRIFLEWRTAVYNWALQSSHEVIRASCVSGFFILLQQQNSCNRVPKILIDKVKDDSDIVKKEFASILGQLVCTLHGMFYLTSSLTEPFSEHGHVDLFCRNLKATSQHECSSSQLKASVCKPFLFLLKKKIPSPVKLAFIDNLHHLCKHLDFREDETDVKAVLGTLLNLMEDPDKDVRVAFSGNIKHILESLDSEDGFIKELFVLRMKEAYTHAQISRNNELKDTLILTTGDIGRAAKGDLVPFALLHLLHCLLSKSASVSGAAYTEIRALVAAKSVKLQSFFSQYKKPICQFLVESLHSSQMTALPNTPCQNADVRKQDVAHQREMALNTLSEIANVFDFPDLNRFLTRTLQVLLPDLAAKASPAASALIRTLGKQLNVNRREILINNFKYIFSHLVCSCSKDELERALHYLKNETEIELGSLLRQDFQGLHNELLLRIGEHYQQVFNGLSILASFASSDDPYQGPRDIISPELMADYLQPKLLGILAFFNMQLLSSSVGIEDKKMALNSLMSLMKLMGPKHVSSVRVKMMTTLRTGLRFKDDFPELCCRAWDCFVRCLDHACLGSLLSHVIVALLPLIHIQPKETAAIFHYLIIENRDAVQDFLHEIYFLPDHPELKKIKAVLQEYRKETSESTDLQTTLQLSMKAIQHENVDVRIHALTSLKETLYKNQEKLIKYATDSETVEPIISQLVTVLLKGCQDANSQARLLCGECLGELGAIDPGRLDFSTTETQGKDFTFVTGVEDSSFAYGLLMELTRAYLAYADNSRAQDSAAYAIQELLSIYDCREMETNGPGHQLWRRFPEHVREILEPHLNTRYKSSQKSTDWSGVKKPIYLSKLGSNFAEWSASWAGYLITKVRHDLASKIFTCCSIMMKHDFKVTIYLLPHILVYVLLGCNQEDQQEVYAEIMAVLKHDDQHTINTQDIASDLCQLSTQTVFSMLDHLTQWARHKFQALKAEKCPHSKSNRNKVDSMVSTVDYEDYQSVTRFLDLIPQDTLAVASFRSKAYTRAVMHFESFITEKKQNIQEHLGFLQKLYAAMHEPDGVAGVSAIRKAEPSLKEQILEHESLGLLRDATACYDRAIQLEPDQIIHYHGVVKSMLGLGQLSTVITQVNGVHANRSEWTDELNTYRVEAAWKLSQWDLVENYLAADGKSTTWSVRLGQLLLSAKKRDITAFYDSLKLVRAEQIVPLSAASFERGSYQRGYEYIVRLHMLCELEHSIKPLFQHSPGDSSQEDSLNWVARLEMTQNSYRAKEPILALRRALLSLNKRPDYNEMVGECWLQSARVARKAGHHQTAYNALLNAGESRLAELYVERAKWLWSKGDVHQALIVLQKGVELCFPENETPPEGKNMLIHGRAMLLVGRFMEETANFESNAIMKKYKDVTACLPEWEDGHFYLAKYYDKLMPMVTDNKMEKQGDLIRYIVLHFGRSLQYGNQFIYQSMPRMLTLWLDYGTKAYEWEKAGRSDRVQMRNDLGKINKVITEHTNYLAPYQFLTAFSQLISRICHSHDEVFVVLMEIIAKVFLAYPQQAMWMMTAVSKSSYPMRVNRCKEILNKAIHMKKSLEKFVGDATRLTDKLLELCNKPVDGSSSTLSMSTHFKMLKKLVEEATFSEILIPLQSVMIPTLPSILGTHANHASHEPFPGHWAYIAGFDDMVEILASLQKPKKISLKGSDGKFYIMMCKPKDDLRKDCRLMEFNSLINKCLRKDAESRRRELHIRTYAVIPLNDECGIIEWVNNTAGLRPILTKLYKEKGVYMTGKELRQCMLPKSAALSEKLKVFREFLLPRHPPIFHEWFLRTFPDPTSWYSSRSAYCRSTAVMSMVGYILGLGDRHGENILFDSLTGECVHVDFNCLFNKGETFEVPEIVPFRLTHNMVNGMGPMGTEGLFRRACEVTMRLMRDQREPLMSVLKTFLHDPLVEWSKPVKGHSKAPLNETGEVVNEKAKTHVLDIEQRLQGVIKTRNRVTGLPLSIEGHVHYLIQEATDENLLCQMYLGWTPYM
Chain of ATR (Q8WXE1 whole entry partner): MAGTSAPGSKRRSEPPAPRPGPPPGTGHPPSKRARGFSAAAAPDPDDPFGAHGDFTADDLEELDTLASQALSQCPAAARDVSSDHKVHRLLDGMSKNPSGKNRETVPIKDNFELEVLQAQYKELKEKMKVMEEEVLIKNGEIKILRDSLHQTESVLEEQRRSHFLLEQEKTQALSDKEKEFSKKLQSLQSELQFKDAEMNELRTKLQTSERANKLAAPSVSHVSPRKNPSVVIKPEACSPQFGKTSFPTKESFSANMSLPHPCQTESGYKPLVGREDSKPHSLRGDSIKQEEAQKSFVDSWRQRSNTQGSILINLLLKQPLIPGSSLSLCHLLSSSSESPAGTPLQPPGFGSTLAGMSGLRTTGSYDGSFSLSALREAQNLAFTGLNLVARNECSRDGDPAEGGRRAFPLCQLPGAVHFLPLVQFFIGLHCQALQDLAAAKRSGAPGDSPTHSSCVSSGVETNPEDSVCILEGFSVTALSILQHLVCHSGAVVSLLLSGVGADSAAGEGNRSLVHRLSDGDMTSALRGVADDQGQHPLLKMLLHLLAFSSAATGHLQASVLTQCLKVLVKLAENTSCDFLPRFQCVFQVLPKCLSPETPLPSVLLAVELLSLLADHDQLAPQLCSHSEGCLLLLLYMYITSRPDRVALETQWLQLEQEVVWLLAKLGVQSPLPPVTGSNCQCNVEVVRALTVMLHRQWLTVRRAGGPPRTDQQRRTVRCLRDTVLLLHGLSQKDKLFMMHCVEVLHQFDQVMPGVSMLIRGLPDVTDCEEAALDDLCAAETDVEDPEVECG
Experimental: This experiment adopted Homogeneous time-resolved fluorescence technology (HTRF®) of Cisbio Company for assay.
Experiment method: buffers were prepared as follows:
Preparation of solutions of the test compounds: The example compounds shown in the table below were prepared into solutions using DMSO as solvent, the stock solution typically being 10 mM. The maximum starting concentration in this experiment was 3 μM, DMSO 3-fold serial dilutions for concentrations, the serially diluted solution was added to each well of the corresponding 384-well plate (geriner bio-one, Cat #784075) to give final concentrations of 3000, 1000, 333, 111, 37, 12.3, 4.12, 1.37, 0.457, 0.152 nM, respectively, and the corresponding amount of DMSO was added to the additional wells to be used as negative or positive control wells, respectively.
The enzyme and substrate were separately dissolved and diluted in two tubes with the buffer prepared above at the following concentrations:
5 μL of the ATR protein solution from tube A was added to the compound-containing wells and the negative control wells in the assay plates using an electric multichannel pipettor, and the same volume of the prepared buffer (medium only, no enzyme) was added to the positive control wells. The plates were centrifuged for one minute at 1000 rpm, and then placed in an incubator at 25° C. for 15 minutes. 5 μL of the substrate mix solution from tube B was added to the positive control well, negative control well and the compound-containing well of the assay plates in the same manner, centrifuged and incubated at 25° C. for 90 minutes.
During the reaction, after ATR phosphorylated the substrate p53, two antibodies were added. Among them, anti-phospho-p53-Eu, as an energy donor, can specifically bind to the phosphorylation site of p53, while anti-GST-d2, as an energy receptor, can specifically bind to the GST-tagged p53. Upon excitation by a laser with certain wavelength (the excitation wavelength in this experiment is 340 nm), the energy donor can emit emission light of 615 nm, and when the energy donor and the energy receptor are close enough in space (that is, two antibodies are connected to p53 at the same time), energy transfer can occur between the energy donor and the energy receptor, so that the energy receptor can emit emission light of 665 nm. The two emission lights were detected by a plate reader, and the ratio of the signals at 665 nm and 615 nm was calculated. The IC50 of the samples tested can be obtained by plotting and calculation.
10 μL per well of the detection solution was added to the positive control, negative control and compound wells of the assay plate using an electric multichannel pipette, centrifuged and incubated overnight at 4° C., and read with the plate reader Envision 2104.
Compound inhibition rate was calculated using interpolation. The mean values of the positive and negative controls were calculated respectively, and the following formula was used to calculate the inhibition rates of the compounds:
Inhibition rate Minimum response+(Compound concentration ^Curve slope)*(Maximum response−Minimum response)/(Compound concentration^Curve slope+Half inhibition concentration ^Curve slope)
The IC50 value of each compound to enzyme activity was obtained.

SMILES | IC50 (LOVO cells) | IC50 (ATR)
C[C@@H]1COCCN1c1c(Cl)c(N2CC3CCC(C2)O3)nn2c(-c3cc[nH]n3)ncc12 [Example 4, 3-(3-chloro-4-((R)-3-methylmorpholino)-7-(1H-pyrazol-3-yl)imidazo[1,5-b]pyridazin-2-yl)-8-oxa-3-azabicyclo[3.2.1]octane] | 140 nM | 20.3 nM
c1cc(-c2ncc3c(N4CCOCC4)cc(N4CC5CCC(C4)O5)nn23)n[nH]1 [Example 7, 3-(4-morpholino-7-(1H-pyrazol-3-yl)imidazo[1,5-b]pyridazin-2-yl)-8-oxa-3-azabicyclo[3.2.1]octane] |  | 21.4 nM
c1cc(-c2ncc3c(N4C5CCC4COC5)cc(N4CC5CCC(C4)O5)nn23)n[nH]1 [Example 8, 8-(2-(8-oxa-3-azabicyclo[3.2.1]octan-3-yl)-7-(1H-pyrazol-3-yl)imidazo[1,5-b]pyridazin-4-yl)-3-oxa-8-azabicyclo[3.2.1]octane] | 243 nM | 18.4 nM
C[C@@H]1CNCCN1c1cc(N2CC3CCC(C2)O3)nn2c(-c3cc[nH]n3)ncc12 [Example 9, 3-(4-((R)-2-methylpiperazin-1-yl)-7-(1H-pyrazol-3-yl)imidazo[1,5-b]pyridazin-2-yl)-8-oxa-3-azabicyclo[3.2.1]octane formate] | 592 nM | 79.2 nM
c1cc(-n2ncc3c(N4CC5CCC(C4)O5)cc(N4CC5CCC(C4)O5)nc32)n[nH]1 [Example 12, 3-(6-(-8-oxa-3-azabicyclo[3.2.1]octan-3-yl)-1-(1H-pyrazol-3-yl)-1H-pyrazolo[3,4-b]pyridin-4-yl)-8-oxa-3-azabicyclo[3.2.1]octane] |  | 16.9 nM
Cn1nc(-c2cc[nH]n2)c2nc(N3CC4CCC(C3)O4)cc(N3CC4CCC(C3)O4)c21 [Example 13, 3-(7-(8-oxa-3-azabicyclo[3.2.1]octan-3-yl)-1-methyl-3-(1H-pyrazol-3-yl)-1H-pyrazolo[4,3-b]pyridin-5-yl)-8-oxa-3-azabicyclo[3.2.1]octane] |  | 18 nM
FC1(F)CCN(c2cc(N3CC4CCC(C3)O4)nn3c(-c4cc[nH]n4)ncc23)CC1 [Example 14, 3-(4-(4,4-difluoropiperidin-1-yl)-7-(1H-pyrazol-3-yl)imidazo[1,5-b]pyridazin-2-yl)-8-oxa-3-azabicyclo[3.2.1]octane] | 419 nM | 8 nM
C[C@H]1COCCN1c1cc(N2CC3CCC(C2)O3)nn2c(-c3cc[nH]n3)ncc12 [Example 15, 3-(4-((S)-3-methylmorpholino)-7-(1H-pyrazol-3-yl)imidazo[1,5-b]pyridazin-2-yl)-8-oxa-3-azabicyclo[3.2.1]octane] | 186 nM | 22 nM
C[C@@H]1COCCN1c1cc(N2CC3CCC(C2)O3)nc2c(-c3cc[nH]n3)nn(C)c12 [Example 19, 3-(1-methyl-7-((R)-3-methylmorpholino)-3-(1H-pyrazol-3-yl)-1H-pyrazolo[4,3-b]pyridin-5-yl)-8-oxa-3-azabicyclo[3.2.1]octane] | 620 nM | 
CC1(C)COCCN1c1cc(N2CC3CCC(C2)O3)nn2c(-c3cc[nH]n3)ncc12 [Example 20, 3-(4-(3,3-dimethylmorpholino)-7-(1H-pyrazol-3-yl)imidazo[1,5-b]pyridazin-2-yl)-8-oxa-3-azabicyclo[3.2.1]octane] | 39 nM | 1.4 nM
OC1(c2cc(N3C[C@H]4CC[C@@H](C3)O4)nc3c(-c4ccn[nH]4)cnn23)CCOCC1 [Example 23, 4-(5-((1R,5S)-8-oxa-3-azabicyclo[3.2.1]octan-3-yl)-3-(1H-pyrazol-5-yl)pyrazolo[1,5-a]pyrimidin-7-yl)tetrahydro-2H-pyran-4-ol] |  | 85.5 nM
Cn1nccc1-c1cc(N2CC3CCC(C2)O3)nn2c(-c3cc[nH]n3)cnc12 [Example 27, 3-(8-(1-methyl-1H-pyrazol-5-yl)-3-(1H-pyrazol-3-yl)imidazo[1,2-b]pyridazin-6-yl)-8-oxa-3-azabicyclo[3.2.1]octane] |  | 149 nM
CC1CC(F)(F)CCN1c1cc(N2CC3CCC(C2)O3)nn2c(-c3cc[nH]n3)ncc12 (stereo not drawn) [Example 30, 3-(4-(4,4-difluoro-2-methylpiperidin-1-yl)-7-(1H-pyrazol-3-yl)imidazo[1,5-b]pyridazin-2-yl)-8-oxa-3-azabicyclo[3.2.1]octane] |  | 5.2 nM

Continued by falling IC50 (ATR), values first:

IC50 (LOVO cells) | IC50 (ATR) | SMILES
 | 145 nM | c1cc(-c2ncc3c(N4CCNCC4)cc(N4CC5CCC(C4)O5)nn23)n[nH]1 [Example 10, 3-(4-(piperazin-1-yl)-7-(1H-pyrazol-3-yl)imidazo[1,5-b]pyridazin-2-yl)-8-oxa-3-azabicyclo[3.2.1]octane formate]
1270 nM | 57.7 nM | Cn1nccc1-c1cc(N2CC3CCC(C2)O3)nc2c(-c3cc[nH]n3)cnn12 [Example 26, 3-(7-(1-methyl-1H-pyrazol-5-yl)-3-(1H-pyrazol-3-yl)pyrazolo[1,5-a]pyrimidin-5-yl)-8-oxa-3-azabicyclo[3.2.1]octane]
 | 50.8 nM | CC1CN(c2cc(N3CC4CCC(C3)O4)nn3c(-c4cc[nH]n4)ncc23)CCO1 (stereo not drawn) [Example 18, 3-(4-(2-methylmorpholino)-7-(1H-pyrazol-3-yl)imidazo[1,5-b]pyridazin-2-yl)-8-oxa-3-azabicyclo[3.2.1]octane]
479 nM | 40.3 nM | C[C@@H]1COCCN1c1cc(N2CC3CCC(C2)O3)nn2c(-c3cc[nH]n3)cnc12 [Example 2, 3-(8-((R)-3-methylmorpholino)-3-(1H-pyrazol-3-yl)imidazo[1,2-b]pyridazin-6-yl)-8-oxa-3-azabicyclo[3.2.1]octane]
 | 32 nM | c1cc(-c2ncc3c(N4CCCCC4)cc(N4CC5CCC(C4)O5)nn23)n[nH]1 [Example 17, 3-(4-(piperidin-1-yl)-7-(1H-pyrazol-3-yl)imidazo[1,5-b]pyridazin-2-yl)-8-oxa-3-azabicyclo[3.2.1]octane]
2640 nM | 22.4 nM | C[C@@H]1CN(C)CCN1c1cc(N2CC3CCC(C2)O3)nn2c(-c3cc[nH]n3)ncc12 [Example 11, 3-(4-((R)-2,4-dimethylpiperazin-1-yl)-7-(1H-pyrazol-3-yl)imidazo[1,5-b]pyridazin-2-yl)-8-oxa-3-azabicyclo[3.2.1]octane formate]
310 nM | 21.9 nM | C[C@@H]1CN(c2cc(N3CC4CCC(C3)O4)nn3c(-c4cc[nH]n4)ncc23)C[C@H](C)O1 [Example 16, 3-(4-(cis-2,6-dimethylmorpholino)-7-(1H-pyrazol-3-yl)imidazo[1,5-b]pyridazin-2-yl)-8-oxa-3-azabicyclo[3.2.1]octane]
